Test results reported in publication PMC7832087 (European journal of medicinal chemistry, 2016).
One block for each compound: values may come before it.

Experiments:
[1] = system: K562 and K562/4 cells; experiment: Intracellular drug accumulation; type: cell-based, human; conditions: 1 μM, 1 h to 24 h
[2] = target: Top2 (Homo sapiens, UniProt P11388); experiment: Top2 DNA relaxation assay; type: biochemical
[3] = system: i.p. transplanted P388 leukemia; conditions: similar treatment schedule, total dose 150 mg/kg for five days; cited from earlier work
[4] = target: Aurora B (Homo sapiens, UniProt Q96GD4); experiment: In vitro kinase assay, Aurora B; type: biochemical
Sequence of Aurora B (Q96GD4 whole entry): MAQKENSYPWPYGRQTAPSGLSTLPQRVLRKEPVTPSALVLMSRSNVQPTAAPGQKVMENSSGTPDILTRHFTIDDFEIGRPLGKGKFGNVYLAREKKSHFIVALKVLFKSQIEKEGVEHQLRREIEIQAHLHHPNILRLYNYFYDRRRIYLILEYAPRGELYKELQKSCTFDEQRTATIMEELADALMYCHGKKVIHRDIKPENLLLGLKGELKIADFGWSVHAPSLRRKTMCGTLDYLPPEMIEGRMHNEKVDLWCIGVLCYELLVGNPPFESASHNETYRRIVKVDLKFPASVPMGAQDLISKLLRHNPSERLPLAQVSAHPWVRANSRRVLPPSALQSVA

[5] = target: T1, Top1 (Homo sapiens, UniProt P11387); experiment: Top1 mediated DNA cleavage; type: biochemical; conditions: 117 bp oligonucleotide with Top1 cleavage sites
T1 sequence (P11387 1-765): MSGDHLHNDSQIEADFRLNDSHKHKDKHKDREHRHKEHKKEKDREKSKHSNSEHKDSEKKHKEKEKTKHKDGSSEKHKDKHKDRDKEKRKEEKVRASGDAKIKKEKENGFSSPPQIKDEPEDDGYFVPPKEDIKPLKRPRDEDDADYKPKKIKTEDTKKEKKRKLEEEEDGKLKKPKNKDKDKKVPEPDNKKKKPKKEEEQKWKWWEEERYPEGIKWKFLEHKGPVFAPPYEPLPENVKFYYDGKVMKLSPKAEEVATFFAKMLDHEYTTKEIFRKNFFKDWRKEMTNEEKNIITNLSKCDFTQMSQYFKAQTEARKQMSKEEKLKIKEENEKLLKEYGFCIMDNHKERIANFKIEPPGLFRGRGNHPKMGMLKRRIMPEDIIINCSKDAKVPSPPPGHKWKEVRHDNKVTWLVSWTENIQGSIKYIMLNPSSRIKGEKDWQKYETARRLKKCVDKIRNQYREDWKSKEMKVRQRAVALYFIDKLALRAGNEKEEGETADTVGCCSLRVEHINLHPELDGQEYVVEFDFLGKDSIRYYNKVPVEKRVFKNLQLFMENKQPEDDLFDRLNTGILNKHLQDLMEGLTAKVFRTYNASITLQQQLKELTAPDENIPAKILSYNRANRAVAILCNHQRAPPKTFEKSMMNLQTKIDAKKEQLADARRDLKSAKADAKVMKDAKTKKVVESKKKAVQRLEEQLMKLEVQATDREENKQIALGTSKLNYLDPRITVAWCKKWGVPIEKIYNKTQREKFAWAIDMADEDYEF

[6] = system: HCT116 and HCT116p53KO cells; experiment: Annexin V-FITC / PI staining; type: cell-based, human; conditions: 1 μM, 24 h
[7] = system: 364 human protein kinases; experiment: In vitro kinase panel; type: biochemical
[8] = system: donor peripheral blood lymphocytes; experiment: Cytotoxicity for donor lymphocytes; type: cell-based; conditions: data not shown
[9] = system: Top1; experiment: Top1 DNA relaxation assay; type: biochemical; conditions: no influence at ≤1 μM, effect at 5 μM and 10 μM
[10] = system: i.p. transplanted P388 leukemia; experiment: Antitumor efficacy, i.p. transplanted P388 leukemia
[11] = Water solubility of salts; type: physicochemical

Sequence of Top2 (P11388 whole entry, species assumed): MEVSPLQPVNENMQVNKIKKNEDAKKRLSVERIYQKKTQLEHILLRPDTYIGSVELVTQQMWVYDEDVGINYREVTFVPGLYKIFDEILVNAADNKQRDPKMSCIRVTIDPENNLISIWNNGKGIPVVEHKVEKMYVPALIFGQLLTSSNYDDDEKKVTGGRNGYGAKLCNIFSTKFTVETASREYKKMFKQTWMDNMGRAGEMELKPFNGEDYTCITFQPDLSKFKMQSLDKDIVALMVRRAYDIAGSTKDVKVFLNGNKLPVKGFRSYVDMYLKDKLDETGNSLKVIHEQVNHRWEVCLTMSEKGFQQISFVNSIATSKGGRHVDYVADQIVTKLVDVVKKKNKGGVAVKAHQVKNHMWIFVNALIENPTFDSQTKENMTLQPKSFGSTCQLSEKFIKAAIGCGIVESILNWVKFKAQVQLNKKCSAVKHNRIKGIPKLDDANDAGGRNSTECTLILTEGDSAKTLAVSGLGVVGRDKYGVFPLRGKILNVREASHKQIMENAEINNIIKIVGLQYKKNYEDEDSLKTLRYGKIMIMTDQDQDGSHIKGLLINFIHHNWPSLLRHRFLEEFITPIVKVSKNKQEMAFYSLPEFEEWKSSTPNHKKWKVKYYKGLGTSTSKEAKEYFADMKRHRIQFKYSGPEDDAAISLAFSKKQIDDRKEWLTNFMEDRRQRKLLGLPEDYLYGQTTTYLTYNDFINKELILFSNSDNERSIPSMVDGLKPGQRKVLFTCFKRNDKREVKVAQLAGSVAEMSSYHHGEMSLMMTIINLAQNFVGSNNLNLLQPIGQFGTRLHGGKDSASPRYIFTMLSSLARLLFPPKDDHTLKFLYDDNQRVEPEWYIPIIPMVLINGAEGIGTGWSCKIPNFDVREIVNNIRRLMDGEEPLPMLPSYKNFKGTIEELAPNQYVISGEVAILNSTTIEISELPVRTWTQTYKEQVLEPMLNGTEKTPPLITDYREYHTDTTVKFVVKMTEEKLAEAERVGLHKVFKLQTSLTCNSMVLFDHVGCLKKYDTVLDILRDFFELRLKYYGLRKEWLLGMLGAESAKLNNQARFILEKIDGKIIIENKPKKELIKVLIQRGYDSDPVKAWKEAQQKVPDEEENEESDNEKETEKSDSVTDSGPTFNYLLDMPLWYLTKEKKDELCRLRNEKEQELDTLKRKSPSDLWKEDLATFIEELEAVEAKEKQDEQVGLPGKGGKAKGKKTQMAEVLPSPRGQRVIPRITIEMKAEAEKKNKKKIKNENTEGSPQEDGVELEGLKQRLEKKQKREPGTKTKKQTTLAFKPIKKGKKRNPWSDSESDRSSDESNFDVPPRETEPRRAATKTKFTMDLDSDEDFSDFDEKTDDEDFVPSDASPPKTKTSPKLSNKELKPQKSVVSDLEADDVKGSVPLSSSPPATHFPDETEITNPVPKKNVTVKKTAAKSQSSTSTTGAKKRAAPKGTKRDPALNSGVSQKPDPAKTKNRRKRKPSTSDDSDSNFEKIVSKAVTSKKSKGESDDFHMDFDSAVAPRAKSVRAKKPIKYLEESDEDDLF

Structure (SMILES): COc1cccc2c1C(=O)c1c(O)c3c(c(O)c1C2=O)C[C@@](O)(C(=O)CO)C[C@@H]3O[C@H]1C[C@H](N)[C@H](O)[C@H](C)O1 [Compound 1, doxorubicin, reference compound]
cell associated fluorescence (intracellular accumulation), K562 vs K562/4 [1]: increased to a much lesser extent

Structure (SMILES): COc1cc([C@@H]2c3cc4c(cc3[C@@H](O[C@@H]3O[C@@H]5CO[C@@H](C)O[C@H]5[C@H](O)[C@H]3O)[C@H]3COC(=O)[C@H]23)OCO4)cc(OC)c1O [VP16, etoposide, reference compound]
Top2 mediated plasmid DNA relaxation [2]: even at 200 μM of VP16 the DNA remained largely unwound

IC50 [4]: 130 to 150 µM
Top1 mediated specific DNA cleavage [5]: cleaved some but not all these sites
Structure (SMILES): O=C1c2ccccc2C(=O)c2c1c(O)c1[nH]cc(CN[C@@H]3CCNC3)c1c2O [Compound 2]
T/Cmax [3]: 155%

Structure (SMILES): CC[C@@]1(O)C(=O)OCc2c1cc1n(c2=O)Cc2cc3ccccc3nc2-1 [CPT, camptothecin]
Top1 mediated specific DNA cleavage [5]: pattern of bands characteristic for specific Top1 poisons

Structure (SMILES): CS(=O)(=O)O.Cc1oc2c(O)c3c(c(O)c2c1C(=O)N1CC[C@H](N)C1)C(=O)c1ccccc1C3=O [Compound 3d, (S)-3-(3-Aminopyrrolidine-1-carbonyl)-4,11-dihydroxy-2methylanthra [2,3-b]furan-5,10-dione methanesulfonate]
apoptotic (Annexin V+/PI−) events [6]: increased percentage of apoptotic
human protein kinases attenuated (IC50 < 5 μM) out of 364 [7]: 2.5%
Top2 mediated plasmid DNA relaxation [2]: even at 40 μM a certain amount of relaxed plasmid DNA was detectable
cytotoxicity against donor peripheral blood lymphocytes [8]: no detectable cytotoxicity
cell associated fluorescence (intracellular accumulation), K562 vs K562/4 [1]: increased similarly over time
Top1 mediated relaxation of supercoiled plasmid DNA [9]: attenuated Top1 mediated relaxation of the supercoiled plasmid DNA in a dose dependent manner
T/C, % ([10]; Table 3, n = 6, single 50 mg/kg i.p. daily days 1–5 (total 250 mg/kg)): death from drug toxicity
toxicity at single dose of 50 mg/kg ([10]; single dose 50 mg/kg i.p. daily for 5 days (total 250 mg/kg)): lethally toxic
general drug toxicity ([10]; single doses of 5–40 mg/kg i.p. daily for 5 days, during or after treatment): No signs of general drug toxicity
Top1 mediated specific DNA cleavage [5]: poorly generated the specific DNA cleavage

Structure (SMILES): CS(=O)(=O)O.Cc1oc2c(O)c3c(c(O)c2c1C(=O)N1CCN(C)CC1)C(=O)c1ccccc1C3=O [Compound 3l, 4,11-Dihydroxy-2-methyl-3-(4-methylpiperazine-1carbonyl)anthra [2,3-b]furan-5,10-dione methanesulfonate]
water solubility of the salt [11]: water soluble mesylates

Structure (SMILES): COc1cc2c3c(n(CCCNCCO)c(=O)c2cc1OC)-c1cc2c(cc1C3=O)OCO2 [MJ–III–65]
Top1 mediated specific DNA cleavage [5]: pattern of bands characteristic for specific Top1 poisons

Structure (SMILES): CS(=O)(=O)O.Cc1oc2c(O)c3c(c(O)c2c1C(=O)N1CC[C@@H](N)C1)C(=O)c1ccccc1C3=O [Compound 3c, (R)-3-(3-Aminopyrrolidine-1-carbonyl)-4,11-dihydroxy-2methylanthra [2,3-b]furan-5,10-dione methanesulfonate]
Top2 mediated plasmid DNA relaxation [2]: even at 40 μM a certain amount of relaxed plasmid DNA was detectable
cytotoxicity against donor peripheral blood lymphocytes [8]: no detectable cytotoxicity
cell associated fluorescence (intracellular accumulation), K562 vs K562/4 [1]: increased similarly over time
Top1 mediated relaxation of supercoiled plasmid DNA [9]: attenuated Top1 mediated relaxation of the supercoiled plasmid DNA in a dose dependent manner
Top1 mediated specific DNA cleavage [5]: poorly generated the specific DNA cleavage
